Some test systems named below: HOP-92 NSCLC; HT29 colon; RPMI-8226 leukemia; KM12 colon; A549 NSCLC; SNB-75 CNS; NCI-H522 lung; IGROV1 ovarian; CAKI-1 renal; A498 renal.
Test in all cases: NCI tumour cell line growth inhibition, 48 h

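Method: 48-hour compound exposure of cells in 96-well plates, five concentrations, linear interpolation of endpoints. GI50: concentration for 50% inhibition of growth. At the TGI there is no net growth.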 Where a SMILES comes first, the peptide text is derived from it. [ ]: non-standard residue; d: D form. The star is where a group is joined. mTyr = N[CH](Cc1cccc(O)c1)C(=O)O; Cbz = O=C(OCc1ccccc1)*; OBn = c1ccc(CO*)cc1

On to `CCNC1=C(NC(=O)CC)C(=O)c2ccccc2C1=O`, for which the TGI in the test on HOP-92 NSCLC, with HT29 colon, with RPMI-8226 leukemia, in the test on KM12 colon, in the test on A549 NSCLC and with SNB-75 CNS was greater than 100 µM in each case. Further, the TGI in the test with NCI-H522 lung and with IGROV1 ovarian was greater than 100 µM throughout.
Consider `Cc1ccc(/C(O)=C/C(=O)C(=O)NN=C(c2ccccc2)c2ccccc2)cc1`, for which the TGI with CAKI-1 renal, in the test with HOP-92 NSCLC, in the test on HT29 colon, with RPMI-8226 leukemia, in the test on KM12 colon and with A549 NSCLC was greater than 100 µM in each case. Moreover, the TGI in the test on SNB-75 CNS, in the test with A498 renal and in the test on IGROV1 ovarian was greater than 100 µM throughout.
For the compound `O=C1C[C@@H](c2ccccc2)O[C@@H](c2ccccc2)C1`, the TGI in the test on CAKI-1 renal, in the test with HOP-92 NSCLC, in the test with HT29 colon, with RPMI-8226 leukemia, in the test with KM12 colon and with A549 NSCLC was greater than 100 µM throughout. The TGI in the test with SNB-75 CNS and in the test with IGROV1 ovarian was greater than 100 µM throughout.
Consider `O=C(Nc1cccc(F)c1)c1cc2ccc(O)cc2oc1=Nc1ccccc1F`, for which the TGI in the test with CAKI-1 renal was 15 µM; in the test with HT29 colon, 51.5 µM; in the test with RPMI-8226 leukemia it was greater than 100 µM; with KM12 colon, 22.4 µM; in the test with A549 NSCLC it was 13.8 µM; with A498 renal, 35.6 µM. For the same compound, the TGI worked out at 10.3 µM with NCI-H522 lung and 7.44 µM in the test on IGROV1 ovarian.
In the case of `CN(C)CCCN1c2ccccc2CCc2ccc([N+](=O)[O-])cc21`, the TGI is greater than 100 µM in the test with CAKI-1 renal; 46.5 µM in the test on HT29 colon; greater than 100 µM in the test with RPMI-8226 leukemia; 33.8 µM with KM12 colon; greater than 100 µM in the test on A549 NSCLC; 40.3 µM in the test on A498 renal. Moreover, the TGI in the test on NCI-H522 lung was 36.7 µM; with IGROV1 ovarian, 31 µM.
In the case of `CCOC(=O)CSc1nnc(C(Sc2nc(-c3ccccc3)c(-c3ccccc3)[nH]2)C(C)C)n1-c1ccccc1` (stereo not given), the TGI in the test with HOP-92 NSCLC was greater than 10 µM; in the test on HT29 colon, 19.4 µM; in the test on RPMI-8226 leukemia it was greater than 86.9 µM; with KM12 colon, greater than 31.6 µM; with A549 NSCLC, greater than 31.6 µM; in the test with SNB-75 CNS, greater than 10 µM. The TGI in the test with A498 renal is greater than 10 µM; in the test on NCI-H522 lung, 26.9 µM; in the test with IGROV1 ovarian, greater than 10 µM.
With `COC(=O)CC1NC(=O)C1C1(C)OCCO1` (stereo not given), the TGI in the test with HT29 colon was greater than 100 µM; in the test on RPMI-8226 leukemia it was greater than 100 µM; in the test on A549 NSCLC, greater than 100 µM; with SNB-75 CNS, 97.7 µM; with A498 renal, greater than 100 µM; with IGROV1 ovarian it was greater than 100 µM.
Consider `CC(C)=C/C=C1/CS(=O)(=O)C=C1C`, for which the TGI with CAKI-1 renal, with HT29 colon, in the test on RPMI-8226 leukemia, in the test on KM12 colon, in the test on A549 NSCLC and in the test with SNB-75 CNS was greater than 100 µM each time. Also, the TGI in the test with A498 renal, in the test on NCI-H522 lung and with IGROV1 ovarian was greater than 100 µM each time.
`COc1cccc(N2C(=O)C3c4[nH]c5ccc(C)cc5c4C4CCC(C(C)(C)C)CC4C3C2=O)c1` (stereo not given): the TGI was greater than 10 µM in the test on CAKI-1 renal; greater than 10 µM in the test on HT29 colon; greater than 10 µM in the test on RPMI-8226 leukemia; greater than 10 µM with KM12 colon; greater than 10 µM with A549 NSCLC; 7.36 µM in the test with SNB-75 CNS. Further, the TGI in the test on A498 renal was greater than 10 µM; in the test with NCI-H522 lung, 5.66 µM; in the test on IGROV1 ovarian it was greater than 10 µM.
Turning to `CCN(CC)CCNCc1cc(Cl)cc2c1OCOC2`, the TGI in the test on CAKI-1 renal, with HT29 colon, with RPMI-8226 leukemia, in the test on KM12 colon, with A549 NSCLC and in the test with SNB-75 CNS was greater than 10 µM each time. Moreover, the TGI in the test with A498 renal, in the test on NCI-H522 lung and with IGROV1 ovarian was greater than 10 µM throughout.
Consider `O=C(N/N=C/c1cc(Cl)cc(Cl)c1O)c1ccccc1O`, for which the GI50 with HOP-92 NSCLC is 3.69 µM; with KM12 colon, 3.72 µM; in the test on A549 NSCLC it was 1450 nM. Besides, the TGI was found to be 19.7 µM in the test with HOP-92 NSCLC; 26.1 µM with HT29 colon; 34.7 µM in the test with KM12 colon; 15.8 µM with A549 NSCLC; 22.5 µM in the test with SNB-75 CNS; 40.6 µM with A498 renal. Also, the TGI in the test with NCI-H522 lung is 3.18 µM; in the test on IGROV1 ovarian it was 19.2 µM.
On to `Cc1ccc2nc(NC(=O)/C(Cc3nc4ccc(Cl)cc4[nH]c3=O)=N\NC(C)(C)C)sc2c1`, for which the TGI with CAKI-1 renal was 89.7 µM; with HOP-92 NSCLC, greater than 100 µM; in the test on HT29 colon, greater than 100 µM; in the test with RPMI-8226 leukemia it was greater than 100 µM; in the test with KM12 colon, greater than 100 µM; in the test on A549 NSCLC, greater than 100 µM. For the same compound, the TGI was 83.1 µM with SNB-75 CNS and greater than 100 µM in the test on A498 renal.
For `CC(C)CN=C(N)N=C(N)N`, the TGI with HOP-92 NSCLC, in the test with HT29 colon, in the test on RPMI-8226 leukemia, in the test with KM12 colon, with A549 NSCLC and in the test with SNB-75 CNS was greater than 100 µM each time. The TGI in the test with NCI-H522 lung and in the test with IGROV1 ovarian was greater than 100 µM each time.
Take `Cc1n[nH]c(=O)n1/N=C/c1ccc([N+](=O)[O-])o1`: the TGI in the test with CAKI-1 renal is 19.9 µM; with HT29 colon, 30.1 µM; in the test on RPMI-8226 leukemia, greater than 58.3 µM; in the test with KM12 colon it was 29.3 µM; in the test with A549 NSCLC it was 35.7 µM; with SNB-75 CNS, greater than 100 µM. The compound further gave a TGI with A498 renal of 47.6 µM.
For the compound `COC(=O)C(Cc1cccc(O)c1)NC(=O)C(CC(=O)OCc1ccccc1)NC(=O)OCc1ccccc1` (stereo not given) (Cbz-Asp(OBn)-[mTyr]-OMe; configuration not given here), the TGI in the test on HOP-92 NSCLC, in the test with HT29 colon, in the test on RPMI-8226 leukemia, in the test on KM12 colon, in the test on A549 NSCLC and with SNB-75 CNS was greater than 100 µM each time. Besides, the TGI in the test with A498 renal and with IGROV1 ovarian was greater than 100 µM throughout.

For the origin of these results see PubChem BioAssay (NCI).
